The format of data set [1] is physicochemical. An excerpt:
Again, without being bound to theory, one could explain this thermostability by the low volatility related with high molecular weight. Indeed, Glycyrrhizic acid and its salts are widely used in food applications that are intended to be baked and keeping the sweetness.

Data set [2] can be described thus: Retention of skin active ingredient after extrusion of the skin engaging member (process tolerance / thermal stability). Format: physicochemical. The conditions noted are these: initial concentration 1% in HIPS/PEG/BHT blend; heated to melt and extruded via rotating screw; 150° C. to 300° C., 250-2000 bar. The procedure: Therefore and more particularly, throughout the present description and claims, the expression “thermally tolerant” or “thermally stable” or “process tolerant” should thus be understood that the skin engaging member retains the contained skin active ingredient, after a thermal treatment/processing at about 150 to 300° C., from 2 to 15 minutes and pressure conditions between 250-2000 bar, in processes such as extrusion or injection or injection-molding, in concentration that is detected quantitatively at the end product/article, by applying analytical chemistry methods, such as liquid chromatography. In embodiments that the skin engaging member comprises skin active ingredient capable of treating and/or preventing skin redness or skin irritation and being selected from the group consisting of a) at least one terpenic acid derivative, b) strombine or salt of strombine, combined with a clay, and c) mixtures thereof, the concentration of the skin active ingredient retained after the thermal treatment/processing is about 0.001-100%, particularly 20-80%, more particularly 20-70%, of the initial quantity of skin active ingredient added. […]
The quantity of the skin active ingredient in the skin engaging member can be measured/evaluated by (chromatographic) methods known to the skilled person depending on the nature of the active ingredient. […]

The values that follow come from patent US12343416B2, “Skin engaging member for razor cartridge comprising skin active ingredient” (BIC-VIOLEX S.A., priority 2019, dated 2025).

Consider `CC1(C)[C@@H](O[C@H]2O[C@H](C(=O)O)[C@@H](O)[C@H](O)[C@H]2O[C@@H]2O[C@H](C(=O)O)[C@@H](O)[C@H](O)[C@H]2O)CC[C@]2(C)[C@H]3C(=O)C=C4[C@@H]5C[C@@](C)(C(=O)O)CC[C@]5(C)CC[C@@]4(C)[C@]3(C)CC[C@@H]12` [Glycyrrhizic acid, (3-beta, 20-beta)-20-carboxy-11-oxo-30-norolean-12-en-β-yl 2-O-beta-D-glucopyranuronosyl-alpha-D-glucopyranosiduronic], for which the heat stability/tolerance result in data set [1] is listed as “heat stable/tolerant”.
Take `C[C@H]1[C@H](C)CC[C@]2(C)CC[C@]3(C)C(=CC[C@@H]4[C@@]5(C)CC[C@@H](O)[C@](C)(C(=O)O)[C@@H]5CC[C@]43C)[C@H]12` [boswellic acid]: in data set [2], the “reduction of the amount of skin active ingredient compared to the initial concentration, measured in the final skin engaging member” value was 52.2%.
Regarding “Dipotassium Glycyrrhizinate/Glycyrrhizate”, the heat stability/tolerance result in data set [1] is listed as “heat stable/tolerant”. For the same compound, the “reduction of the amount of skin active ingredient compared to the initial concentration, measured in the final skin engaging member” value in data set [2] is listed as 30%.
